SMILES strings stand for the structures.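 Exposure lasted 48 hours, with cells grown in 96-well plates and compounds tested at five concentrations. GI50 marks 50% less growth.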 Active and inactive are the calls of the source. No stated cut-off is given here; in the data, active = GI50 up to about 1.1 µM and inactive = higher.

The text below walks through data of ChEMBL document CHEMBL1201862, “PubChem BioAssay data set” (2004).

Common to all, as to experiment: NCI tumour cell line growth inhibition, 48 h
Assay [1] deals with K562.
Assay [2] deals with OVCAR-3.
Assay [3] concerns SK-OV-3.
Assay [4] relates to NCI-H522.
The test system of assay [5] is MOLT-4.
Assay [6] has as its system A549.
The test system of assay [7] is HCC 2998.
The test system of assay [8] is TK-10.
Assay [9] has as its system HOP-62.
Assay [10] relates to SW-620.
Assay [11] relates to MCF7.
For assay [12], the system named is COLO 205.
Assay [13] concerns UO-31.
Assay [14] relates to NCI-H460.
The subject of assay [15] is SF-295.
Assay [16] concerns M14.
In assay [17] the test system is SN12C.
Assay [18] relates to MDA-MB-435.
Assay [19] concerns MDA-N.
In assay [20] the test system is LOX IMVI.

As for `CCN(CC)Cc1cc(Nc2c3ccccc3nc3c4ccccc4n(C)c23)cc(CN(CC)CC)c1O`, the GI50 in [1] was 2.76 µM (inactive); in assay [2], 2.43 µM (inactive); in assay [3], 14.4 µM (inactive); in assay [4] it was 1.75 µM (inactive); in [5] it was 1.63 µM (inactive); in assay [6], 8.43 µM (inactive). Besides, the GI50 in assay [7] was 5.11 µM (inactive); in assay [8], 10.9 µM (inactive); in assay [9], 4.4 µM (inactive); in assay [10] it was 3.12 µM (inactive); in assay [11], 3.61 µM (inactive); in assay [12], 2.77 µM (inactive). Further, the GI50 in [13] is 2.12 µM (inactive); in assay [14], 3.89 µM (inactive); in assay [15], 5.35 µM (inactive); in assay [16] it was 1.76 µM (inactive); in assay [17], 6.61 µM (inactive); in assay [18] it was 3.01 µM (inactive).

In the case of `O=C(OC1C(Oc2ccccc2COC(=O)C2(O)C=CCCC2=O)OC(CO)C(O)C1O)c1ccccc1` (centres undefined), the GI50 is 27 µM (inactive) in assay [19]; 34.4 µM (inactive) in assay [1]; 33.9 µM (inactive) in assay [3]; 17.7 µM (inactive) in assay [4]; 6.03 µM (inactive) in [5]; 7.05 µM (inactive) in assay [6]. In addition, the GI50 in assay [8] was 31.3 µM (inactive); in assay [9], 42 µM (inactive); in assay [10], 24.7 µM (inactive); in assay [12], 23.3 µM (inactive); in assay [13], 26.5 µM (inactive); in assay [14], 22.3 µM (inactive). Moreover, the GI50 was 35 µM (inactive) in [16], 25.9 µM (inactive) in assay [17], 23.6 µM (inactive) in assay [20] and 27.5 µM (inactive) in assay [18].

In the case of `Cc1cc2c(c(=O)o1)C1=S(SC(c3ccccc3)=C1)S2` (centres undefined), the GI50 in [19] is > 100 µM (inactive); in assay [1], 38.4 µM (inactive); in [2] it was 24.9 µM (inactive); in [3], 23.8 µM (inactive); in assay [4], 37.6 µM (inactive); in assay [5], > 100 µM (inactive). For the same compound, the GI50 in [6] was 33.7 µM (inactive); in assay [8], 32.2 µM (inactive); in assay [9], 20.8 µM (inactive); in assay [10], > 100 µM (inactive); in assay [11], 29.6 µM (inactive); in [12] it was > 100 µM (inactive). Moreover, the GI50 is 26.5 µM (inactive) in assay [13]; 37.2 µM (inactive) in assay [14]; 27.3 µM (inactive) in assay [15]; 45.5 µM (inactive) in [16]; 67.3 µM (inactive) in [17]; 87.1 µM (inactive) in [20].

Regarding `CC(C)(C)C(=O)CC(=O)C(F)(F)C(F)(F)C(F)(F)F`, the GI50 in assay [19] was 15.4 µM (inactive); in assay [1], 15.8 µM (inactive); in assay [2], 14.1 µM (inactive); in assay [3], 20.9 µM (inactive); in assay [5], 17.9 µM (inactive); in assay [6] it was 22.3 µM (inactive). In addition, the GI50 in [8] is 18.2 µM (inactive); in assay [9], 18.3 µM (inactive); in assay [10], 18.8 µM (inactive); in assay [12] it was 19 µM (inactive); in assay [13] it was 20 µM (inactive); in assay [14], 12.9 µM (inactive). Besides, the GI50 in assay [15] is 17.5 µM (inactive); in assay [16] it was 16 µM (inactive); in [17], 13.9 µM (inactive); in [20], 0.362 µM (active); in assay [18] it was 15.5 µM (inactive).

Regarding `C[S+](C)C1(c2ccccc2)C(=O)c2ccccc2C1=O`, the GI50 in assay [1] is > 51.6 µM (inactive); in assay [2], > 55.1 µM (inactive); in [3], > 100 µM (inactive); in assay [4], > 48.8 µM (inactive); in assay [5] it was > 83.2 µM (inactive); in assay [6], 36.4 µM (inactive). The GI50 is 17.7 µM (inactive) in [7]; > 100 µM (inactive) in [8]; > 56.9 µM (inactive) in assay [9]; > 100 µM (inactive) in assay [10]; > 100 µM (inactive) in assay [11]; > 100 µM (inactive) in [12]. Further, the GI50 in assay [13] is 32.1 µM (inactive); in assay [14], > 55.6 µM (inactive); in assay [15], 36.1 µM (inactive); in [16], > 59.6 µM (inactive); in [17], > 100 µM (inactive); in assay [20], 38.9 µM (inactive). The GI50 in assay [18] is 42.6 µM (inactive).

Consider `Cc1cccc2c(N)c3cccc(C(=O)NCCN(C)C)c3nc12`, for which the GI50 is 0.0162 µM (active) in assay [1]; 0.125 µM (active) in assay [2]; 0.113 µM (active) in assay [3]; < 0.0176 µM (active) in assay [4]; < 0.01 µM (active) in assay [5]; < 0.0161 µM (active) in assay [6]. For the same compound, the GI50 in [7] was 0.027 µM (active); in assay [8], 0.214 µM (active); in [9] it was < 0.0247 µM (active); in [10], < 0.0225 µM (active); in assay [11], < 0.0168 µM (active); in assay [12], 0.0315 µM (active). Besides, the GI50 in assay [13] is 0.112 µM (active); in assay [14], < 0.01 µM (active); in [15], < 0.0298 µM (active); in assay [16] it was 0.143 µM (active); in [17], < 0.0167 µM (active); in assay [20], < 0.033 µM (active). Besides, the GI50 in assay [18] was 0.12 µM (active).

As for `COc1ccc(/C=C2\CCC(CNc3ccc(Br)cc3)C2=O)cc1` (centres undefined), the GI50 in [1] was 20 µM (inactive); in assay [2], > 100 µM (inactive); in assay [3] it was > 100 µM (inactive); in assay [4] it was > 10 µM (inactive); in [5], 34.1 µM (inactive); in [6], 93.8 µM (inactive). The GI50 in assay [7] is 83.9 µM (inactive); in assay [8], 57.5 µM (inactive); in assay [9] it was > 100 µM (inactive); in assay [10], 67.3 µM (inactive); in [11], 21.5 µM (inactive); in assay [12], 81.8 µM (inactive). Further, the GI50 in assay [13] was 73.8 µM (inactive); in assay [14] it was 76 µM (inactive); in assay [15], > 100 µM (inactive); in assay [16], 65.8 µM (inactive); in [17] it was 10.2 µM (inactive); in assay [20], 25.9 µM (inactive). The GI50 in assay [18] is > 100 µM (inactive).

For the compound `c1ccc2c(c1)ccn1ccc3c4ccccc4nc-3c21`, the GI50 in assay [1] was 0.194 µM (active); in assay [2], 0.918 µM (active); in assay [3], 0.566 µM (active); in assay [4] it was 0.3 µM (active); in assay [5], 0.0759 µM (active); in [6] it was 0.32 µM (active). Also, the GI50 was 0.191 µM (active) in [7]; 1.16 µM (inactive) in assay [8]; 0.411 µM (active) in assay [9]; 0.202 µM (active) in [10]; 0.229 µM (active) in assay [11]; 0.222 µM (active) in assay [12]. Moreover, the GI50 in assay [13] is 0.34 µM (active); in assay [14] it was 0.262 µM (active); in assay [15], 0.426 µM (active); in [16] it was 0.38 µM (active); in assay [17], 0.285 µM (active); in [20], 0.366 µM (active). For the same compound, in [18], the GI50 was 0.362 µM (active).

For `Cc1cc(C)c(/N=N/c2c(O)c(S(=O)(=O)O)cc3cc(S(=O)(=O)O)ccc23)cc1C`, the GI50 in assay [19], in assay [1], in assay [2], in assay [3], in [4] and in assay [5] was > 100 µM (inactive) in each case. Also, the GI50 in assay [6], in [8], in assay [9], in [10], in assay [12] and in assay [13] was > 100 µM (inactive) throughout. In addition, the GI50 in assay [15], in [16], in assay [17], in assay [20] and in assay [18] was > 100 µM (inactive) throughout.

In the case of `CCCCOc1ccc(S(=O)(=O)N/C(N)=N/c2ccc(Cl)cc2)cc1`, the GI50 in assay [19] is 16.2 µM (inactive); in [1], 15 µM (inactive); in [2] it was 14.9 µM (inactive); in assay [3] it was 19.1 µM (inactive); in [4] it was 10.5 µM (inactive); in assay [5] it was 11.2 µM (inactive). Also, the GI50 in [6] is 19.5 µM (inactive); in assay [8], 14.9 µM (inactive); in [9], 20.2 µM (inactive); in assay [10] it was 15.5 µM (inactive); in assay [11], 12.4 µM (inactive); in assay [12], 25.2 µM (inactive). Also, the GI50 in [13] was 14.8 µM (inactive); in [14], 17.1 µM (inactive); in [15], 18.3 µM (inactive); in assay [16] it was 18.7 µM (inactive); in assay [17] it was 14.9 µM (inactive); in assay [20] it was 17.3 µM (inactive).

`COc1cc(Nc2c(C#N)[n+]([O-])c3ccccc3[n+]2[O-])cc(OC)c1OC`: the GI50 in assay [1] is 39.1 µM (inactive); in assay [2], 25.6 µM (inactive); in assay [3] it was 15.7 µM (inactive); in assay [4], 29.1 µM (inactive); in assay [5], 42 µM (inactive); in assay [6], 43.8 µM (inactive). Moreover, the GI50 is 18.4 µM (inactive) in assay [7]; > 100 µM (inactive) in [8]; 29 µM (inactive) in [9]; 29.9 µM (inactive) in [10]; 24.2 µM (inactive) in [11]; 12.6 µM (inactive) in assay [12]. Besides, the GI50 in [13] is > 100 µM (inactive); in [14] it was 35.2 µM (inactive); in assay [15], 46.3 µM (inactive); in [16], 15 µM (inactive); in assay [17], 35.8 µM (inactive); in assay [20], 26.7 µM (inactive). In [18], the GI50 is 37.4 µM (inactive).
